# Experimental data reported in patent US7323303B2, “Modified β-lactamases and uses thereof” (priority 2003, dated 2008).
# How the values were obtained:
# [1] = target: T1, E166C mutant of β-lactamase I (Bacillus cereus, UniProt P00809, E185C); experiment: Spectrophotometric substrate hydrolysis, steady-state kinetics; format: biochemical; details: 50 mM potassium phosphate buffer pH 7.0, 20° C.
# T1 construct: made in house; host or cells: B. subtilis 1A304 (φ105MU331)
# T1 sequence (P00809 28-306 E185C): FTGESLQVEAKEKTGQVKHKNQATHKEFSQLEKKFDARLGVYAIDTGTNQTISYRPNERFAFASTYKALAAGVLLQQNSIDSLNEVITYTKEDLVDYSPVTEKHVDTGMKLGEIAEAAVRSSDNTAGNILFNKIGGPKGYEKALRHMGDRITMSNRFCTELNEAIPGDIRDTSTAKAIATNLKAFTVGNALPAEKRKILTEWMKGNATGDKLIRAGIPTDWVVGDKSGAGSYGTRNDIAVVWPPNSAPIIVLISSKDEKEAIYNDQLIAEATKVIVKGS
# Procedure: (§1) The hydrolytic activities of the wild-type β-lactamase I, E166C and E166Cf mutants towards penicillin G, penicillin V and ampicillin (Sigma) were monitored by the spectrophotometric method. The spectrophotometric measurements were performed on a Perkin Elmer Lambda Bio20 UV/Vis spectrometer. Substrate hydrolysis was monitored at a fixed wavelength: 235 nm for ampicillin, 232 nm for penicillin G and penicillin V. The initial rate of substrate hydrolysis occurring within 5 min was determined in duplicate at each of 6 different substrate concentrations in 50 mM potassium phosphate buffer (pH 7.0) at 20° C. The initial rates determined were then treated as described in Reference 5 to calculate the Michaelis constants (Km) and turnover numbers (kcat) using non-linear regression analysis (equation 1):
# (§2) [formula] where v is the initial rate of substrate hydrolysis, Vmax the maximum rate of reaction, [S] the initial substrate concentration, Km the Michaelis constant and kcat=Vmax/[Enzyme].
# (§3) The measured steady-state kinetic parameters for hydrolysis of penicillin G, penicillin V and ampicillin by the wild-type β-lactamase I, E166C and E166Cf mutants are summarized in Table 1.
# [2] = target: T2, E166Cf (fluorescein-labeled E166C mutant of β-lactamase I) (Bacillus cereus, UniProt P00809, E185C); experiment: as above; format: biochemical; details: E166Cf; 50 mM potassium phosphate buffer pH 7.0, 20° C.
# T2 construct: made in house; host or cells: B. subtilis 1A304 (φ105MU331); then labelled chemically
# T2 sequence (P00809 28-306 E185C): T1 sequence (P00809 28-306 E185C)
# Procedure: as §1, §2, §3
# At high substrate concentration (1.0×10^−5 and 1.0×10^−4 M), the penicillin substrates rapidly occupy the active sites to form the ES complexes, thus switching on the fluorescence of the fluorescein labels instantaneously. […] This can be verified by the fact that the ‘plateau time’ (8 and 22 min for 1.0×10^−5 and 1.0×10^−4 M penicillin G respectively) is consistent with the ‘substrate hydrolysis time’ determined by spectrophotometric assays (7 and 20 min for 1.0×10^−5 and 1.0×10^−4 M penicillin G respectively). When most of the penicillin substrates have been hydrolyzed to carboxylic acids, the fluorescence signal of the labeled enzyme will decline subsequently.
# E166Cf enzyme [3] = target: T3, E166Cf enzyme (Bacillus cereus, UniProt P00809, E185C); experiment: Detection of β-lactam antibiotics in milk by E166Cf fluorescence; details: untreated milk; E166Cf 1.2×10^−7 M
# T3 construct: made in house; host or cells: B. subtilis 1A304 (φ105MU331); then labelled chemically
# T3 sequence (P00809 28-306 E185C): T1 sequence (P00809 28-306 E185C)
# Procedure: Fluorescence measurements of the E166Cf enzyme in milk in the presence of penicillin G and ampicillin were performed on a FLUOstar microplate reader (BMG Labtechnologies) equipped with two sample injectors. Excitation and emission filters of 485 and 520 nm respectively were used. Milk (pasteurized and homogenized, Nestle Dairy Farm) was purchased at a local supermarket. The labeled enzyme was mixed with the milk sample in a 96-well microtiter plate (Corning Costar). The antibiotics were then added to the mixtures by the injectors.
# FIGS. 21 and 22 show the results from the time-resolved fluorescence measurements of the labeled enzyme (1.2×10^−7 M) in untreated milk in the presence of various concentrations of penicillin G and ampicillin respectively.
# [4] = target: T4, B. cereus penPC β-lactamase (Bacillus cereus, UniProt P00809); experiment: Drug screening: E166Cf fluorescence in presence of bacterial β-lactamase culture; format: biochemical; set-up: key: −: Decline in fluorescence signal (presence of beta-lactam hydrolysis); +: No decline in fluorescence signal (absence of beta-lactam hydrolysis); details: antibiotic 1.0×10^−4 M, E166Cf 1.2×10^−7 M
# T4 construct: made in house; host or cells: B. subtilis 1A304 (φ105MU331); whole culture used, not purified
# T4 sequence (P00809 28-306): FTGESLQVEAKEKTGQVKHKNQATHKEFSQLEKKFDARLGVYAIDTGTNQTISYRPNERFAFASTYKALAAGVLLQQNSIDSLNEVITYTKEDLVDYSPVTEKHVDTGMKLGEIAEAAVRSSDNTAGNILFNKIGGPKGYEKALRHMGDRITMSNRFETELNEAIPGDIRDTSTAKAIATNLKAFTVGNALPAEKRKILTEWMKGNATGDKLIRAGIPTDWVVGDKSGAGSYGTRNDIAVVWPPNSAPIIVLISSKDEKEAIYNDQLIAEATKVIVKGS
# Procedure: (§4) The use of the E166Cf enzyme in screening bacterial β-lactamases against various β-lactam antibiotics was investigated. The principle of our method is that when both E166Cf and bacterial β-lactamase are incubated with ‘β-lactamase-unstable’ antibiotics, the fluorescence of the E166Cf enzyme will be suppressed because of the greater catalytic efficiency of the bacterial enzyme. In contrast, when bacterial β-lactamases are screened against ‘β-lactamase-resistant’ antibiotics, the fluorescence of the E166Cf enzyme will be enhanced because of the poor hydrolytic activity of the bacterial enzyme. Thus, any β-lactam antibiotic that causes the labeled enzyme to increase its fluorescence intensity in the presence of bacterial β-lactamases can be used in clinical treatments.
# (§5) The β-lactamase II, penPC β-lactamase and penP β-lactamase were expressed in B. subtilis 1A304 (φ105MU331). These enzymes were prepared according to the procedures described previously (Reference 7: Thomwell, S. J. East, A. K., Errington, J. An efficient expression and secretion system based on Bacillus subtilis phage phi 105 and its uses for the production for B. cereus β-lactamase I. (1993) Gene 133, 47-53) with slight modifications. A bacterial strain was streaked on an agar plate containing 5 μg/ml chloramphenicol, and the plate was incubated at 37° C. for 24 h. A single bacterial colony from the agar plate was inoculated into 100 ml of sterilized BHY medium (37 g/l brain heart infusion and 5 g/l yeast extract) which was then incubated at 37° C. with shaking at 300 rpm overnight. About 7 ml of overnight inoculum was added to a baffled conical flask containing 100 ml of sterilized BHY medium. The inoculated medium was incubated at 37° C. with shaking at 300 rpm. When the optical density of the bacterial culture at 600 nm reached 3.5 to 4.0, the bacterial culture was heated in a water bath at 51° C. for 5 min. Afterwards, the bacterial culture was incubated at 37° C. with shaking at 300 rpm for a further 6 h. The bacterial culture was then harvested and stored at −20° C.
# (§6) Fluorescence measurements of the E166Cf enzyme in the presence of bacterial cultures and β-lactam antibiotics were performed on a FLUOstar microplate reader (BMG Labtechnologies) equipped with two sample injectors. Excitation and emission filters of 485 and 520 nm respectively were used. For B. cereus penPC β-lactamase, B. licheniformis penP β-lactamase and B. cereus β-lactamase II, the labeled enzymes were mixed with the bacterial cultures, and the mixtures were made up to 300 μl with 50 mM phosphate buffer (pH 7.0) in a 96-well microtiter plate (Corning Costar). For the purpose of comparison, B. subtilis cultures, which produced no β-lactamase, were set up as negative controls. For E. coli. TEM-1 β-lactamase, the labeled enzymes were mixed with the bacterial cultures without dilution. E. coli. cultures, which produced no β-lactamase, were set up as negative controls for comparison. The antibiotics were then added to the bacterial samples by the injectors.
# (§7) The results from the time-resolved fluorescence measurements of the labeled enzyme (1.2×10^−7 M) in the presence of various bacterial cultures and β-lactam antibiotics (1.0×10^−4 M) are shown in FIGS. 23 to 26.
# B. cereus β-lactamase II = target: T5, B. cereus β-lactamase II (Bacillus cereus, UniProt P04190); experiment: as above; format: biochemical; set-up: key: −: Decline in fluorescence signal (presence of beta-lactam hydrolysis); +: No decline in fluorescence signal (absence of beta-lactam hydrolysis); details: antibiotic 1.0×10^−4 M, E166Cf 1.2×10^−7 M
# T5 construct: made in house; host or cells: B. subtilis 1A304 (φ105MU331); whole culture used, not purified
# T5 sequence (P04190 31-257): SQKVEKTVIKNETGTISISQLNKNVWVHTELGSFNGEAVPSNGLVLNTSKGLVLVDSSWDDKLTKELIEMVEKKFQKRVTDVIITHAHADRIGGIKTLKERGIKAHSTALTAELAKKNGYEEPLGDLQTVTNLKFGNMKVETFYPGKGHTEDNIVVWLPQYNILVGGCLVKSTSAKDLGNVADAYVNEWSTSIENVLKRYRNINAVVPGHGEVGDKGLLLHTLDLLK
# Procedure: as §4, §5, §6, §7
# [5] = target: T6, B. licheniformis penP β-lactamase (Bacillus licheniformis, UniProt P00808); experiment: as above; format: biochemical; set-up: key: −: Decline in fluorescence signal (presence of beta-lactam hydrolysis); +: No decline in fluorescence signal (absence of beta-lactam hydrolysis); details: antibiotic 1.0×10^−4 M, E166Cf 1.2×10^−7 M
# T6 construct: made in house; host or cells: B. subtilis 1A304 (φ105MU331); whole culture used, not purified
# T6 sequence (P00808 27-307): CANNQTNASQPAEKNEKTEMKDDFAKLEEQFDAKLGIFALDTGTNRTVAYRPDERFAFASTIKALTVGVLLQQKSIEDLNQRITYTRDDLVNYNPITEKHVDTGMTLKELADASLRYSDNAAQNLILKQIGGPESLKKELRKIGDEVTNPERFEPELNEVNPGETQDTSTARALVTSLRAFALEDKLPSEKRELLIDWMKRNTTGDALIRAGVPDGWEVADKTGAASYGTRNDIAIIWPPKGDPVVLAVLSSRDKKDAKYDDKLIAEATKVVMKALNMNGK
# Procedure: as §4, §5, §6, §7
# [6] = target: T7, E. coli TEM-1 β-lactamase (Escherichia coli, UniProt P62593); experiment: as above; format: biochemical; set-up: key: −: Decline in fluorescence signal (presence of beta-lactam hydrolysis); +: No decline in fluorescence signal (absence of beta-lactam hydrolysis); details: E. coli TEM-1 culture, undiluted; antibiotic 1.0×10^−4 M; E166Cf 1.2×10^−7 M
# T7 construct: made in house; host or cells: E. coli BL21(DE3); whole overnight culture used undiluted, not purified
# T7 sequence (P62593 24-286 limits assumed): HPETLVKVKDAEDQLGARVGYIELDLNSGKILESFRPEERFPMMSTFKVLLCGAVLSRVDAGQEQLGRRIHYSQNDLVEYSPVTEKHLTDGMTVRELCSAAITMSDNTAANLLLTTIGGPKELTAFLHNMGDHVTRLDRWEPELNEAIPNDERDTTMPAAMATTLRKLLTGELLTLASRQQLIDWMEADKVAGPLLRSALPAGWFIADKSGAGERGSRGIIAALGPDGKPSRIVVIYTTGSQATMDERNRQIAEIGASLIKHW
# Procedure: as §4
# The TEM-1 β-lactamase was expressed in E. coli. BL21(DE3). Preparation of the TEM-1 β-lactamase was performed as follows. A bacterial strain was streaked on an agar plate containing 100 μg/ml ampicillin, and the plate was incubated at 37° C. for 24 h. A single bacterial colony from the plate was inoculated into 100 ml of sterilized LB broth (28 g/l) which was then incubated at 37° C. with shaking at 280 rpm overnight. After overnight incubation, the bacterial culture was harvested and stored at −20° C.
# as §6, §7
# E166Cf enzyme [7] = target: T3, E166Cf enzyme; experiment: Time-resolved fluorescence of E166Cf enzyme with β-lactamase inhibitors; format: biochemical; details: E166Cf 1.2×10^−7 M, 50 mM phosphate buffer pH 7.0
# Procedure: Time-resolved fluorescence measurements of the E166Cf enzyme in the presence of sulbactam and clavulanate were performed on a Perkin Elmer LS50B spectrofluorometer. The excitation and emission wavelengths were set at 494 and 515 nm respectively. Both excitation and emission slit widths were set at 5 nm. All fluorescence measurements were performed at room temperature.
# The fluorescence signals of the labeled enzyme (1.2×10^−7 M) obtained with sulbactam (1.0×10^−4 M) and clavulanate (1.0×10^−3 M) in 50 mM phosphate buffer (pH 7.0) are entirely different (FIGS. 18 and 19).
smiles,measurement,setting,value
"CC1(C)S[C@@H]2[C@H](NC(=O)[C@H](N)c3ccccc3)C(=O)N2[C@H]1C(=O)O [Ampicillin, ampicillin]",Km,[1],306 ± 30 µM
same,kcat,[1],4.1 ± 0.1 s⁻¹
same,Km,[2],262 ± 31 µM
same,kcat,[2],6.2 ± 0.2 s⁻¹
same,lowest concentration detected by the labeled enzyme,E166Cf enzyme [3],10^−6 M
same,fluorescence signal of E166Cf (beta-lactam hydrolysis),[4],−
same,fluorescence signal of E166Cf (beta-lactam hydrolysis),B. cereus β-lactamase II,−
same,fluorescence signal of E166Cf (beta-lactam hydrolysis),[5],−
same,fluorescence signal of E166Cf (beta-lactam hydrolysis),[6],−
O=C(O)[C@H]1/C(=C/CO)O[C@@H]2CC(=O)N21 [clavulanate],time course of E166Cf fluorescence signal at 515 nm,E166Cf enzyme [7]; 1.0×10^−3 M inhibitor,instantaneous increase in fluorescence signal which declines rapidly within 200 s and then levels off to a plateau
CC1(C)[C@H](C(=O)O)N2C(=O)C[C@H]2S1(=O)=O [sulbactam],time course of E166Cf fluorescence intensity at 515 nm,E166Cf enzyme [7]; 1.0×10^−4 M inhibitor,increases rapidly at the initial stage and then declines slowly
